Laboratory results: patent publication US7473690B2, “Tetralin and indane derivatives and uses thereof” (Roche Palo Alto LLC, priority 2004, dated 2009)

Tests used:
[1] = target: T1, recombinant human 5-HT2A receptor (Homo sapiens, UniProt P28223); experiment: Radioligand binding, [3H]Ketanserin competition, 5-HT2A; conditions: [3H]Ketanserin displacement, membranes of CHO-K1 cells, pH 7.4, 32° C.; read-out: pKi for 5-HT2A (converted)
T1 construct: expressed in transfected cells; membranes)
Protocol: (§1) The binding activity of compounds of this invention in vitro was determined as follows. Duplicate determinations of 5-HT6 ligand affinity were made by competing for binding of [^3H]LSD in cell membranes derived from HEK293 cells stably expressing recombinant human 5-HT6 receptor. Duplicate determinations of 5-HT2A ligand affinity were made by competing for binding of [^3H]Ketanserin (3-(2-(4-(4-fluorobenzoyl)piperidinol)ethyl)-2,4(1H,3H)-quinazolinedione) in cell membranes derived from CHO-K1 cells stably expressing recombinant human 5-HT2A receptor. Membranes were prepared from HEK 293 cell lines by the method described by Monsma et al., Molecular Pharmacology, Vol. 43 pp. 320-327 (1993), and from CHO-K1 cell lines as described by Bonhaus et al., Br J Pharmacol. Jun; 115 (4):622-8 (1995).
(§2) For estimation of affinity at the 5-HT6 receptor, all determinations were made in assay buffer containing 50 mM Tris-HCl, 10 mM MgSO4, 0.5 mM EDTA, 1 mM ascorbic acid, pH 7.4 at 37° C., in a 250 microliter reaction volume. […]
(§3) Assay tubes containing [^3H] […] LSD or [^3H]Ketanserin were determined as radioactive counts per minute using Packard TopCount.
(§4) Displacement of [^3H]LSD or [^3H]Ketanserin from the binding sites was quantified by fitting concentration-binding data to a 4-parameter logistic equation: […]

[2] = target: T2, recombinant human 5-HT6 receptor (Homo sapiens, UniProt P50406); experiment: Radioligand binding, [3H]LSD competition, 5-HT6; conditions: [3H]LSD displacement, membranes of HEK293 cells, pH 7.4, 37° C.; read-out: pKi for 5-HT6 (converted)
T2 construct: expressed in transfected cells; membranes)
T2 sequence (P50406 whole entry): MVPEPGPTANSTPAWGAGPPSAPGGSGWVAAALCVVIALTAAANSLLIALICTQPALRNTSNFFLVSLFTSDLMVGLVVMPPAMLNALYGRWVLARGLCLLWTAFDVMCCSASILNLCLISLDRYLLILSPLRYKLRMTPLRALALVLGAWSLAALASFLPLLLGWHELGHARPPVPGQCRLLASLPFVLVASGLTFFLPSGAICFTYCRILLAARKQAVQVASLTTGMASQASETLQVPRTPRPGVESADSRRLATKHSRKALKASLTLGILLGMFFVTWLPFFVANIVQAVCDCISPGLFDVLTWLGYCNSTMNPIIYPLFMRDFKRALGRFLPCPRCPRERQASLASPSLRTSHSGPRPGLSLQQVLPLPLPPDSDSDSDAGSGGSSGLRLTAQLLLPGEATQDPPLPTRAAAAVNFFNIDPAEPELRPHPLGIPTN
Protocol: as §1, §2, §3, §4

T1 sequence (P28223 whole entry): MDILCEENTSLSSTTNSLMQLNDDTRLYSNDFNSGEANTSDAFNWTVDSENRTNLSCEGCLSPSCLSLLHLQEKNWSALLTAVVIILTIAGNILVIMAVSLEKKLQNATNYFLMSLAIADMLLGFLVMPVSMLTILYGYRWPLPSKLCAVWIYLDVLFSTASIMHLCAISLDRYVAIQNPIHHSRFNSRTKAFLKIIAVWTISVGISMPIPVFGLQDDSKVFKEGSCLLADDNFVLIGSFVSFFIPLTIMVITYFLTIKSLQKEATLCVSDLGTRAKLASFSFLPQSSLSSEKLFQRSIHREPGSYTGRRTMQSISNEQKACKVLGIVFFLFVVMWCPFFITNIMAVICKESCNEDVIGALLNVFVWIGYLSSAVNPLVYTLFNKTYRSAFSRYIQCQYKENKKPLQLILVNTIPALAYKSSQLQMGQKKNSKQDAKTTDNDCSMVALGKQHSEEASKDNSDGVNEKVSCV

## CN1CCN(C2CCCc3cc(S(=O)(=O)c4ccccc4)ccc32)CC1 (centres unmarked) [Compound 11, 1-(6-Benzenesulfonyl-1,2,3,4-tetrahydro-naphthalen-1-yl)-4-methyl-piperazine]
[1]
  Ki: ~17.4 nM
[2]
  Ki: ~0.302 nM
